Results reported in patent publication US12729377B2, “RNAi agents and compositions for inhibiting expression of angiopoietin-like 3 (ANGPTL3), and methods of use” (Arrowhead Pharmaceuticals, Inc., priority 2017, dated 2026).
In the oligonucleotide strings, read from the 5' end, every base follows the letter of its sugar. An asterisk marks phosphorothioate; unmarked linkages are phosphodiester. Other units and linkages are bracketed, terminal groups are in braces. A string of capitals states the bases alone. {NAG37} = tridentate N-acetyl-galactosamine targeting ligand, structure (NAG37)s; [invAb] = inverted abasic unit; m = 2'-O-methyl; f = 2'-fluoro

Legend:
[1] = tested on: ANGPTL3 gene; test: Example 4: serum total cholesterol in mice; type: in vivo, C57bl/6 mice
Description: (§1) To assess the in vivo activity of ANGPTL3 RNAi agents that are designed to target additional positions on the ANGPTL3 gene, six- to eight-week-old female C57bl/6 mice were used. Pre-dose serum samples were taken at day −1 after a four hour fast. At day 1, each mouse was given a single subcutaneous administration of 200 μl containing either 1 mg/kg (mpk) or 0.5 mg/kg (mpk) of an ANGPTL3 RNAi agent in D5W (dextrose in 5% water), or control (D5W) with no RNAi agent, according to the dosing groups recited in Table 17.
(§2) Each of the RNAi agents included a modified sequence and an N-acetyl-galactosamine-containing targeting ligand conjugated to the 5′ terminal end of the sense strand. (See Tables 3, 4, and 5 for modified sequences and targeting ligand structures). The injections were performed between the skin and muscle (i.e. subcutaneous injections) into the loose skin over the neck and shoulder area. Three (3) mice in each group were tested (n=3). Serum was collected on days 8, 15, 22, 29, and day 43 (Groups 1-3, 9, and 11-13 only). Mice were fasted for four hours prior to each collection. ANGPTL3 protein levels in serum were measured by ELISA assay (R&D Systems), according to the manufacturer's recommendations. Triglycerides, high-density lipoprotein (HDL), and total cholesterol in serum were measured on a Cobas® Integra 400 (Roche Diagnostics), according to the manufacturer's recommendations.
(§3) The ANGPTL3 protein levels, triglyceride levels, HDL levels, and total cholesterol levels for each animal were normalized. For normalization, the level of ANGPTL3 protein, triglyceride, HDL, and total cholesterol, respectively, for each animal at a time point, was divided by the pre-treatment level of expression in that animal (in this case at day −1) to determine the ratio of expression “normalized to pre-treatment.” Expression at a specific time point was then normalized to the D5W control group by dividing the “normalized to pre-treatment” ratio for an individual animal by the mean “normalized to pretreatment” ratio of all mice in the D5W control group.

[2] = tested on: ANGPTL3 gene; test: Example 4: serum LDL in mice; type: in vivo, C57bl/6 mice; settings: for Avg LDL, normalized to pre-treatment and control: serum, n=3
Description: as §1, §2, §3

[3] = tested on: ANGPTL3 protein; test: Example 7: serum ANGPTL3 protein by ELISA in mice; type: in vivo, C57bl/6 mice; parameters: key: ratio: (level/pre-treatment day -1 level) ÷ mean of D5W control group
Description: (§4) To further assess the in vivo activity of additional ANGPTL3 RNAi agents that are designed to target position 304 on the ANGPTL3 gene, six- to eight-week-old female C57bl/6 mice were used. Pre-dose serum samples were taken at day −1 after a four hour fast. At day 1, each mouse was given a single subcutaneous administration of 200 μl containing 0.5 mg/kg (mpk) of an ANGPTL3 RNAi agent in D5W (dextrose in 5% water), or control (D5W) with no RNAi agent, according to the dosing groups recited in Table 31.
as §2, with “22,” for “22, 29,”, “29.” for “day 43 (Groups 1-3, 9, and 11-13 only).”, “Triglycerides, total cholesterol,” for “Triglycerides,”, “low-density lipoprotein (LDL)” for “total cholesterol”
(§5) The ANGPTL3 protein levels, triglyceride levels, total cholesterol levels, HDL levels, and LDL levels for each animal were normalized. For normalization, the level of ANGPTL3 protein, triglyceride, HDL, and total cholesterol, respectively, for each animal at a time point, was divided by the pre-treatment level of expression in that animal (in this case at day −1) to determine the ratio of expression “normalized to pre-treatment.” Expression at a specific time point was then normalized to the D5W control group by dividing the “normalized to pre-treatment” ratio for an individual animal by the mean “normalized to pretreatment” ratio of all mice in the D5W control group.

[4] = tested on: ANGPTL3 gene; test: Example 7: serum triglycerides in mice; type: in vivo, C57bl/6 mice; parameters: key: ratio: (level/pre-treatment day -1 level) ÷ mean of D5W control group
Description: as §4
as §2, with “22,” for “22, 29,”, “29.” for “day 43 (Groups 1-3, 9, and 11-13 only).”, “Triglycerides, total cholesterol,” for “Triglycerides,”, “low-density lipoprotein (LDL)” for “total cholesterol”
as §5

[5] = tested on: ANGPTL3 gene; test: Example 7: serum HDL in mice; type: in vivo; parameters: key: ratio: (level/pre-treatment day -1 level) ÷ mean of D5W control group; settings: 0.5 mg/kg single SC injection day 1, female C57bl/6 mice, n=3, ratio to D5W control
Description: as §4
as §2, with “22,” for “22, 29,”, “29.” for “day 43 (Groups 1-3, 9, and 11-13 only).”, “Triglycerides, total cholesterol,” for “Triglycerides,”, “low-density lipoprotein (LDL)” for “total cholesterol”
as §5

[6] = tested on: ANGPTL3 gene; test: Example 7: serum LDL in mice; type: in vivo; parameters: key: ratio: (level/pre-treatment day -1 level) ÷ mean of D5W control group; settings: 0.5 mg/kg single SC injection day 1, female C57bl/6 mice, n=3, ratio to D5W control
Description: as §4
as §2, with “22,” for “22, 29,”, “29.” for “day 43 (Groups 1-3, 9, and 11-13 only).”, “Triglycerides, total cholesterol,” for “Triglycerides,”, “low-density lipoprotein (LDL)” for “total cholesterol”
as §5

[7] = Day 8, 0.5 mg/kg single SC injection on day 1, n=3
[8] = Day 8, 1.0 mg/kg single SC injection on day 1, n=3
[9] = Day 15, 0.5 mg/kg single SC injection on day 1, n=3
[10] = Day 15, 1.0 mg/kg single SC injection on day 1, n=3
[11] = Day 22, 0.5 mg/kg single SC injection on day 1, n=3
[12] = Day 22, 1.0 mg/kg single SC injection on day 1, n=3
[13] = Day 29, 0.5 mg/kg single SC injection on day 1, n=3
[14] = Day 29, 1.0 mg/kg single SC injection on day 1, n=3
[15] = Day 43, 1.0 mg/kg single SC injection on day 1, n=3
[16] = Day 8, 1.0 mg/kg single SC injection on day 1
[17] = Day 15, 1.0 mg/kg single SC injection on day 1
[18] = Day 22, 1.0 mg/kg single SC injection on day 1
[19] = Day 29, 1.0 mg/kg single SC injection on day 1
[20] = Day 43, 1.0 mg/kg single SC injection on day 1

Substance | Avg Total Chol, normalized to pre-treatment and control [1, 8] | Avg Total Chol, normalized to pre-treatment and control [1, 10] | Avg Total Chol, normalized to pre-treatment and control [1, 12] | Avg Total Chol, normalized to pre-treatment and control [1, 14] | Avg Total Chol, normalized to pre-treatment and control [1, 15] | Avg LDL, normalized to pre-treatment and control [2, 16] | Avg LDL, normalized to pre-treatment and control [2, 17] | Avg LDL, normalized to pre-treatment and control [2, 18] | Avg LDL, normalized to pre-treatment and control [2, 19] | Avg LDL, normalized to pre-treatment and control [2, 20] | Avg ANGPTL3, normalized to pre-treatment and control [3, 7] | Avg ANGPTL3, normalized to pre-treatment and control [3, 9] | Avg ANGPTL3, normalized to pre-treatment and control [3, 11] | Avg ANGPTL3, normalized to pre-treatment and control [3, 13] | Avg TG, normalized to pre-treatment and control [4, 7] | Avg TG, normalized to pre-treatment and control [4, 9] | Avg TG, normalized to pre-treatment and control [4, 11] | Avg TG, normalized to pre-treatment and control [4, 13] | Avg HDL, normalized to pre-treatment and control ([5]; Day 8) | Avg HDL, normalized to pre-treatment and control ([5]; Day 15) | further results
AD05308: RNAi agent duplex: antisense AM07003-AS, sense AM07002-SS (chain 1 mU*fG*mU*fUmGfAmAfUmUfAmAfUmGfUmCfCmAfUmGfG*mA; chain 2 {NAG37}*[invAb]*mUmCmCmAmUmGmGmAfCfAfUmUmAmAmUmUmCmAmAmCmA*[invAb]) | 0.868 | 0.793 | 0.770 | 0.819 | 1.073 | 0.842 | 0.688 | 0.829 | 0.897 | 1.033 | 0.447 | 0.388 | 0.440 | 0.523 | 0.836 | 0.755 | 0.839 | 0.705 | 0.750 | 0.791 | Avg Total Chol, normalized to pre-treatment and control [1, 7]: 0.992; Avg Total Chol, normalized to pre-treatment and control [1, 9]: 0.838; Avg Total Chol, normalized to pre-treatment and control [1, 11]: 1.000; Avg Total Chol, normalized to pre-treatment and control [1, 13]: 0.958; Avg Total Chol, normalized to pre-treatment and control ([1]; Day 43, 0.5 mg/kg single SC injection on day 1, n=3): 1.157; Avg LDL, normalized to pre-treatment and control ([2]; Day 8, 0.5 mg/kg single SC injection on day 1): 0.965; Avg LDL, normalized to pre-treatment and control ([2]; Day 15, 0.5 mg/kg single SC injection on day 1): 0.830; Avg HDL, normalized to pre-treatment and control ([5]; Day 22): 0.846; Avg HDL, normalized to pre-treatment and control ([5]; Day 29): 0.905; Avg LDL, normalized to pre-treatment and control ([6]; Day 8): 0.710; Avg LDL, normalized to pre-treatment and control ([6]; Day 15): 0.801; Avg LDL, normalized to pre-treatment and control ([6]; Day 22): 0.933; Avg LDL, normalized to pre-treatment and control ([6]; Day 29): 1.047
AD05488: RNAi agent duplex: antisense AM07235-AS, sense AM07234-SS (antisense mU*fA*mC*fUmGfAmUfCmAfAmAfUmAfUmGfUmUfGmAfG*mC; sense {NAG37}*[invAb]*mGmCmUmCmAmAmCmAfUfAfUmUmUmGmAmUmCmAmGmUmA*[invAb]) | 0.827 | 0.667 | 0.759 | 0.683 | 0.837 | 0.936 | 0.714 | 0.811 | 0.801 | 0.902 | 0.339 | 0.379 | 0.346 | 0.469 | 0.856 | 0.947 | 0.922 | 0.877 | 0.783 | 0.793 | LDL levels reduced ([2]; day 29, single 1 mg/kg subcutaneous, C57bl/6 mice): ~20%; Avg HDL, normalized to pre-treatment and control ([5]; Day 22): 0.780; Avg HDL, normalized to pre-treatment and control ([5]; Day 29): 0.886; Avg LDL, normalized to pre-treatment and control ([6]; Day 8): 0.953; Avg LDL, normalized to pre-treatment and control ([6]; Day 15): 0.825; Avg LDL, normalized to pre-treatment and control ([6]; Day 22): 0.860; Avg LDL, normalized to pre-treatment and control ([6]; Day 29): 1.055
AD05418: RNAi agent duplex: antisense AM07159-AS, sense AM07158-SS (antisense mU*fU*mU*fGmAfAmUfUmAfAmUfGmUfCmCfAmUfGmGfG*mU; sense {NAG37}*[invAb]*mAmCmCmCmAmUmGmGfAfCfAmUmUmAmAmUmUmCmAmAmA*[invAb]) | 0.818 | 0.761 | 0.915 | 0.853 | 1.002 | 1.044 | 0.841 | 1.142 | 0.966 | 0.921 | 0.534 | 0.565 | 0.639 | 0.758 | 0.830 | 0.655 | 0.815 | 0.586 | 0.907 | 0.857 | Avg HDL, normalized to pre-treatment and control ([5]; Day 22): 0.910; Avg HDL, normalized to pre-treatment and control ([5]; Day 29): 1.048; Avg LDL, normalized to pre-treatment and control ([6]; Day 8): 1.160; Avg LDL, normalized to pre-treatment and control ([6]; Day 15): 0.928; Avg LDL, normalized to pre-treatment and control ([6]; Day 22): 0.950; Avg LDL, normalized to pre-treatment and control ([6]; Day 29): 1.131
